Data reported in patent US9751861B2, “N1-(3,3,3-trifluoro-2-hydroxo-2-methylpropionyl)-piperidine derivatives as inhibitors of pyruvate dehydrogenase kinase” (MERCK PATENT GMBH, priority 2013, dated 2017).

Tests used:
[1] = test system: PDH-Elalpha (pSer300); assay: Cellular immunofluorescence assay in HEK293T cells; type: cell-based; details: Homo sapiens, HEK-293T, 5 hours incubation, anti-PDH-E1alpha pSer300 immunofluorescence, read-out: IC50 (cell data)
Protocol: Cellular Assay for Determination of Compound Activities
Compound activities were determined in a cellular immunofluorescence assay. Human HEK293T cells were seeded into black 384-well plates with clear bottom and grown overnight.
Next day, test compounds were added to the wells and the plates incubated for 5 hours. Following this, cells were fixed with formaldehyde, permeabilised and blocked. The primary antibody, Anti-PDH-Elalpha (pSer300), AP1064 (Merck Millipore) was added and incubated overnight in the plate wells. Next, cells were washed and the seconday antibody, Alexa Fluor 488, goat anti-rabbit ab (A-11008, Invitrogen) was added together with Hoechst 33258 (H3569, Invitrogen) and incubated for 1 hour in the plate wells. Finally, cells were washed and the plates were measured on the laser scanning cytometer acumen hci (TTpLabtech).
The raw data were normalized against a pharmacological inhibitor control and dose response curves were generated by plotting the percent effect values using the software package Genedata screener (Genedata).

[2] = target: T1, human PDHK2 (12-407) (Homo sapiens, UniProt Q15119); assay: Isothermal titration calorimetry (ITC) binding; details: 30° C., pH 7.5
T1 construct: The human PDHK2 (12-407) was produced in E. coli; His-tag (cleaved yes); made in house; host or cells: E. coli
Protocol: Isothermal Titration Calorimetry
ITC measurements were performed with a VP-ITC micro calorimeter (Microcal, LLC/GE Healthcare Bio-Sciences AB, Uppsala, Sweden). In general titrations were performed by titrating the protein (50 μM) to the test compound (5 μM) in 12 μl injections. All binding experiments were carried out at 30° C. In general the test compounds were diluted form DMSO stock solutions into the measurement buffer with a maximum final concentration of 1% DMSO. The measurement buffer was 20 mM HEPES, 135 mM KCl, 1 mM TCEP, 2 mM MgCl2, 15 mM NaH2PO4, pH 7.5. The human PDHK2 (12-407) was produced in E. coli as his-tagged protein and purified by affinity chromatography. The tag was removed by side specific proteolysis. Before titration the protein buffer was changed to the measurement buffer containing the same DMSO concentration as the test compound dilution. ITC data analysis was performed using Origin 7 calorimetry software from the same supplier. For most measurements a binding model of one binding site was assumed. According to the applied mathematical model it is possible to calculate the binding constant (KA), the observed binding enthalpy (ΔH^obs) as well as the stoichiometry (N) of the formed complex. Preceding analysis the raw data was corrected for the heats of dilution by extrapolating from the saturation value from the end of titration. In order to allow for direct comparison between the respective experimental series and protein preparations the protein concentration was corrected by referencing titrations to a well behaved standard inhibitor. The apparent stoichiometry values defined the fraction of binding competent protein and compensated for relative errors in protein concentration measurements. This corrected protein concentration was used to set up ITC experiment series with test compounds. Any deviations from ideal 1:1 stoichiometry observed here were attributed to errors in compound concentration. This nominal compound concentration was corrected as well to achieve 1:1 stoichiometry in the fit.

[3] = target: T2, PDHK2 (Homo sapiens, UniProt Q15119); assay: Biochemical activity testing of PDHK2: PDC inactivation assay; details: human rec PDHK2, PDC from porcine heart, ATP 5 μM; read-out: IC50 PDHK2 (enzyme assay)
T2 construct: purchased Carna Bioscience
Excerpt: Biochemical Activity Testing of PDHK2: PDC Inactivation Assay
The biochemical activity assay for PDHK2 is based on the inactivation of PDC through phosphorylation by PDHK2. The assay is run in two steps: the enzymatic PDHK2 reaction in which isolated PDC is phosphorylated by PDHK2 with ATP as co-substrate and the PDC activity assay in which pyruvate and NAD are converted to acetyl-CoA and NADH. The PDC activity correlates to the increase in NADH and thereby is detectable directly via the increasing fluorescence signal (Exc 340 nm, Em 450 nm). Inhibition of PDHK2 results in a lower phosphorylation status and thereby a less decrease in activity of PDC and a stronger increase in NADH fluorescence signal.
The PDC inactivation assay is performed in Greiner 384-well microtiter plates and is used for high throughput screen. 4 μl of PDHK2 (human, rec, Carna Bioscience, 10 ng/μl-137 nM final concentration) and PDC (isolated from porcine heart, Sigma-Aldrich, 20 mU/ml final concentration) are incubated in the absence or presence of the test compound (10 dilution concentrations) for 30 min at room temperature in kinase buffer (15 mM potassium phosphate buffer, pH 7.0, 60 mM KCl, 1.5 mM DTT, 2.5 mM MgCl2, 0.0125% (w/v) BSA, 0.125% Pluronic F-68). The kinase reaction is started by the addition of 4 μl ATP substrate solution (fc 5 μM in kinase buffer). After 30 min incubation at 37° C. 40 μl of PDC reaction solution (100 mM Tris/HCl, pH 7.8, 0.5 mM EDTA, 1 mM MgCl2, 50 mM NaF, 0.25 mM Coenzyme A, 5 mM pyruvate, 1 mM NAD, 5 mM DTT, […] thiamine pyrophosphate) is added. The first fluorescence measurement is performed on a Perkin Elmer Envision (Exc 340 nm, Em 450 nm). The reaction is incubated for 45 min at room temperature. Afterwards a second fluorescence measurement is performed and the PDC activity is calculated by the difference between both measurements. As full value for the PDHK2 assay the inhibitor-free PDHK2 reaction is used. The pharmacological zero value used is DCA (Sigma-Aldrich) in a final concentration of 3 mM. The inhibitory values (IC50) were determined using either the program Symyx Assay Explorer® or Condosseo® from GeneData.

## C[C@@](O)(C(=O)N1CCC(c2ccnn2-c2ccc(F)cc2F)CC1)C(F)(F)F [Compound A26, (R)-1-{4-[2-(2,4-Difluoro-phenyl)-2H-pyrazol-3-yl]-piperidin-1-yl}-3,3,3-trifluoro-2-hydroxy-2-methyl-propan-1-one]
[1]
  IC50: 0.3 to 3 µM
[2]
  Kd: < 0.3 µM
[3]
  IC50: < 0.3 µM

## Cc1cc(C2CCN(C(=O)[C@@](C)(O)C(F)(F)F)CC2)n(-c2ccc(F)cc2F)n1 [Compound A97, (R)-1-{4-[2-(2,4-Difluoro-phenyl)-5-methyl-2H-pyrazol-3-yl]-piperidin-1-yl}-3,3,3-trifluoro-2-hydroxy-2-methyl-propan-1-one]
[1]
  IC50: 0.3 to 3 µM
[2]
  Kd: < 0.3 µM
[3]
  IC50: < 0.3 µM

## C[C@@](O)(C(=O)N1CCC(c2ccnn2-c2ccc(F)cc2)CC1)C(F)(F)F [Compound A14, (R)-3,3,3-Trifluoro-1-{4-[2-(4-fluoro-phenyl)-2H-pyrazol-3-yl]-piperidin-1-yl}-2-hydroxy-2-methyl-propan-1-one]
[1]
  IC50: 0.3 to 3 µM
[2]
  Kd: < 0.3 µM
[3]
  IC50: < 0.3 µM

## C[C@@](O)(C(=O)N1CCC(c2ccnn2-c2ccc(Cl)c(Cl)c2)CC1)C(F)(F)F [Compound A101, (R)-1-{4-[2-(3,4-Dichloro-phenyl)-2H-pyrazol-3-yl]-piperidin-1-yl}-3,3,3-trifluoro-2-hydroxy-2-methyl-propan-1-one]
[1]
  IC50: 0.3 to 3 µM
[2]
  Kd: < 0.3 µM
[3]
  IC50: 0.3 to 3 µM

## C[C@@](O)(C(=O)N1CCC(n2cncc2-c2ccc(Cl)cc2)CC1)C(F)(F)F [Compound A64, (2R)-1-[4-[5-(4-chlorophenyl)imidazol-1-yl]-1-piperidyl]-3,3,3-trifluoro-2-hydroxy-2-methyl-propan-1-one]
[1]
  IC50: 0.3 to 3 µM
[2]
  Kd: < 0.3 µM
[3]
  IC50: < 0.3 µM

## CC(C)n1nccc1C1CCN(C(=O)[C@@](C)(O)C(F)(F)F)CC1 [Compound A36, (R)-1-[4-(2-Isopropyl-2H-pyrazol-3-yl)-piperidin-1-yl]-3,3,3-trifluoro-2-hydroxy-2-methyl-propan-1-one]
[1]
  IC50: 3 to 50 µM
[2]
  Kd: < 0.3 µM
[3]
  IC50: 0.3 to 3 µM

## CCc1ccc(-n2nccc2C2CCN(C(=O)[C@@](C)(O)C(F)(F)F)CC2)cc1 [Compound A24, (R)-1-{4-[2-(4-Ethyl-phenyl)-2H-pyrazol-3-yl]-piperidin-1-yl}-3,3,3-trifluoro-2-hydroxy-2-methyl-propan-1-one]
[1]
  IC50: 0.3 to 3 µM
[2]
  Kd: < 0.3 µM
[3]
  IC50: < 0.3 µM

## COc1ccc(-n2nccc2C2CCN(C(=O)[C@@](C)(O)C(F)(F)F)CC2)cn1 [Compound A53, (R)-3,3,3-Trifluoro-2-hydroxy-1-{4-[2-(6-methoxy-pyridin-3-yl)-2H-pyrazol-3-yl]-piperidin-1-yl}-2-methyl-propan-1-one]
[1]
  IC50: 0.3 to 3 µM
[2]
  Kd: < 0.3 µM
[3]
  IC50: 0.3 to 3 µM

## COc1ccc(-n2nccc2C2CCN(C(=O)C(C)(O)C(F)(F)F)CC2)c(F)c1 (racemic) [Compound A30, rac-3,3,3-Trifluoro-1-{4-[2-(2-fluoro-4-methoxy-phenyl)-2H-pyrazol-3-yl]-piperidin-1-yl}-2-hydroxy-2-methyl-propan-1-one]
[1]
  IC50: 0.3 to 3 µM
[2]
  Kd: < 0.3 µM
[3]
  IC50: < 0.3 µM

## Cc1cc(C2CCN(C(=O)[C@@](C)(O)C(F)(F)F)CC2)n(-c2ccc(F)cc2)n1 [Compound A41, (R)-1-{4-[2-(4-Fluoro-phenyl)-5-methyl-2H-pyrazol-3-yl]-piperidin-1-yl}-3,3,3-trifluoro-2-hydroxy-2-methyl-propan-1-one]
[1]
  IC50: 0.3 to 3 µM
[2]
  Kd: < 0.3 µM
[3]
  IC50: < 0.3 µM

## C[C@@](O)(C(=O)N1CCC(n2cnnc2-c2ccccc2F)CC1)C(F)(F)F [Compound A55, (R)-3,3,3-Trifluoro-1-{4-[3-(2-fluoro-phenyl)-[1,2,4]triazol-4-yl]-piperidin-1-yl}-2-hydroxy-2-methyl-propan-1-one]
[1]
  IC50: 3 to 50 µM
[2]
  Kd: 0.3 to 3 µM
[3]
  IC50: 0.3 to 3 µM

## C[C@@](O)(C(=O)N1CCC(c2cncn2-c2ccc(F)cc2F)CC1)C(F)(F)F [Compound A130, (R)-1-{4-[3-(2,4-Difluoro-phenyl)-3H-imidazol-4-yl]-piperidin-1-yl}-3,3,3-trifluoro-2-hydroxy-2-methyl-propan-1-one]
[1]
  IC50: 0.3 to 3 µM
[2]
  Kd: < 0.3 µM
[3]
  IC50: 0.3 to 3 µM

## C[C@@H]1CN(C(=O)[C@@](C)(O)C(F)(F)F)CC[C@@H]1c1ccnn1[C@H]1CC[C@H](O)CC1 [Compound A121, (R)-3,3,3-Trifluoro-2-hydroxy-1-{(3S,4S)-4-[2-(4-hydroxy-cyclohexyl)-2H-pyrazol-3-yl]-3-methyl-piperidin-1-yl}-2-methyl-propan-1-one]
[1]
  IC50: 0.3 to 3 µM
[2]
  Kd: < 0.3 µM
[3]
  IC50: < 0.3 µM

## C[C@@](O)(C(=O)N1CCC(c2cncn2-c2ccccc2)CC1)C(F)(F)F [Compound A65, (R)-3,3,3-Trifluoro-2-hydroxy-2-methyl-1-[4-(3-phenyl-3H-imidazol-4-yl)piperidin-1-yl]-propan-1-one]
[1]
  IC50: 0.3 to 3 µM
[2]
  Kd: < 0.3 µM
[3]
  IC50: 0.3 to 3 µM

## C[C@@H]1CN(C(=O)[C@@](C)(O)C(F)(F)F)CC[C@@H]1c1ccnn1-c1ccc(F)cc1F [Compound A33, (R)-1-{(3S,4S)-4-[2-(2,4-difluoro-phenyl)-2H-pyrazol-3-yl]-3-methyl-piperidin-1-yl}-3,3,3-trifluoro-2-hydroxy-2-methyl-propan-1-one]
[1]
  IC50: < 0.3 µM
[3]
  IC50: < 0.3 µM

## C[C@H]1CN(C(=O)[C@@](C)(O)C(F)(F)F)CC[C@H]1c1ccnn1-c1ccc(F)cc1F [Compound A32, (R)-1-{(3R,4R)-4-[2-(2,4-difluoro-phenyl)-2H-pyrazol-3-yl]-3-methyl-piperidin-1-yl}-3,3,3-trifluoro-2-hydroxy-2-methyl-propan-1-one]
[1]
  IC50: 0.3 to 3 µM
[3]
  IC50: < 0.3 µM

## COc1ccccc1-n1nccc1C1CCN(C(=O)[C@@](C)(O)C(F)(F)F)CC1 [Compound A7, (R)-3,3,3-Trifluoro-2-hydroxy-1-{4-[2-(2-methoxy-phenyl)-2H-pyrazol-3-yl]-piperidin-1-yl}-2-methyl-propan-1-one]
[1]
  IC50: < 0.3 µM
[2]
  Kd: 0.3 to 3 µM

## C[C@@](O)(C(=O)N1CCC(c2ccnn2-c2ccccc2C#N)CC1)C(F)(F)F [Compound A3, 2-{5-[1-((R)-3,3,3-Trifluoro-2-hydroxy-2-methyl-propionyl)-piperidin-4-yl]-pyrazol-1-yl}-benzonitrile]
[1]
  IC50: 0.3 to 3 µM
[2]
  Kd: 0.3 to 3 µM
